Experimental data as given in ChEMBL document CHEMBL1201862, “PubChem BioAssay data set” (2004).
Active and inactive are the calls of the source.

Assays:
[1] = molecular target: T1, Apoptotic protease-activating factor 1 (Homo sapiens, UniProt O14727); type: functional
T1 sequence (O14727 whole entry): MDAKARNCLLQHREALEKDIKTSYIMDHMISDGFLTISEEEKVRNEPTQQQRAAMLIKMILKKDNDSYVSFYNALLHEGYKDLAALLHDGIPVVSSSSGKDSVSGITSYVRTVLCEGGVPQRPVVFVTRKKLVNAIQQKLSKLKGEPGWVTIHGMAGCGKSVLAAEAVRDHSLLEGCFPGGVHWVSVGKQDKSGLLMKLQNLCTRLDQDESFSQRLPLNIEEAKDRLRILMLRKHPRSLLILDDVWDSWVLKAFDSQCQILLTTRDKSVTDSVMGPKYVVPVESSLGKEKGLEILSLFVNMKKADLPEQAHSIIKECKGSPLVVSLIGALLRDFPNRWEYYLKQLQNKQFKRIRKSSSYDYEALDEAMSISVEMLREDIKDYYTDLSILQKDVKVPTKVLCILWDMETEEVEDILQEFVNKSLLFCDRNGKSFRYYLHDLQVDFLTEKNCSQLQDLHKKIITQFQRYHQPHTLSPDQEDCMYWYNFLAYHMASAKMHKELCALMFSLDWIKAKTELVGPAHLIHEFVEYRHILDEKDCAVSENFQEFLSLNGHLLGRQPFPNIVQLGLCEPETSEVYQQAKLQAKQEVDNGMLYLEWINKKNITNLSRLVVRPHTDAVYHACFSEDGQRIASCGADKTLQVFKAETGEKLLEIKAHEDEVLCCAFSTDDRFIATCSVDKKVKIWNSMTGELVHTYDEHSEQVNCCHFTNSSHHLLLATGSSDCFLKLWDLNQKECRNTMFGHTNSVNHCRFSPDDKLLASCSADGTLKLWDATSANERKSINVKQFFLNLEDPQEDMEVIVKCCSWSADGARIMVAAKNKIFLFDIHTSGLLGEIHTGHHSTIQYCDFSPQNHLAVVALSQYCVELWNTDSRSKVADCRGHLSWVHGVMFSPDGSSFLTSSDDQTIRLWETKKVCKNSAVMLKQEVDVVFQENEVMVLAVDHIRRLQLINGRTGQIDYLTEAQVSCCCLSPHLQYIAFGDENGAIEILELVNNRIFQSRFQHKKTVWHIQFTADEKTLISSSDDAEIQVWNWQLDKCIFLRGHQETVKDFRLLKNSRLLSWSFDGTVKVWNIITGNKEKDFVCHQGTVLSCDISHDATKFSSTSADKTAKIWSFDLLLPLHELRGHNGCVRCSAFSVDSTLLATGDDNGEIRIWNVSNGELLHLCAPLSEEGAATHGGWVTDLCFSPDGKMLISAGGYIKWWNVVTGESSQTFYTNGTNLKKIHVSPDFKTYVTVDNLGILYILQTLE

Beta-galactosidase = Beta-galactosidase (Escherichia coli, UniProt Q8VNN2); assay: PubChem AID 485352; type: functional
[2] = molecular target: T2, Type-1 angiotensin II receptor (Homo sapiens, UniProt P30556); assay: antagonism of angiotensin II type 1 receptor – cell-based, uHTS hits, selectivity assay for APJ receptor antagonist project, dose response (AID 463214); type: functional;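 note: antagonist potency against angiotensin II stimulated AT1 response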
T2 sequence (P30556 whole entry): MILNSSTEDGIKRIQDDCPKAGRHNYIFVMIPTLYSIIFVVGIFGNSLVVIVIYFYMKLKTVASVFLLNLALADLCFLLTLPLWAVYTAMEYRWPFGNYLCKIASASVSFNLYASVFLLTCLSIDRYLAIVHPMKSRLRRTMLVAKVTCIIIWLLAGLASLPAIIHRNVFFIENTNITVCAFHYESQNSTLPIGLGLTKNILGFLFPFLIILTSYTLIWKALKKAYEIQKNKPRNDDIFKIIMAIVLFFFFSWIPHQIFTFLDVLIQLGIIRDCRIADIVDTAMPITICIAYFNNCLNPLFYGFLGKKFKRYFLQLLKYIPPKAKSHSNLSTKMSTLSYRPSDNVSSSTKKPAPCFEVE

Genome polyprotein = Genome polyprotein (dengue virus type 2, UniProt P29990); assay: flavivirus cap methylation enzyme inhibition – biochemical, confirmation dose response, primary screen (AID 588689); type: functional
[3] = molecular target: Dual specificity tyrosine-phosphorylation-regulated kinase 1A (Rattus norvegicus, UniProt Q63470); type: biochemical, Homo sapiens
[4] = molecular target: T3, Sentrin-specific protease 8 (Homo sapiens, UniProt Q96LD8); type: functional
T3 sequence (Q96LD8 whole entry): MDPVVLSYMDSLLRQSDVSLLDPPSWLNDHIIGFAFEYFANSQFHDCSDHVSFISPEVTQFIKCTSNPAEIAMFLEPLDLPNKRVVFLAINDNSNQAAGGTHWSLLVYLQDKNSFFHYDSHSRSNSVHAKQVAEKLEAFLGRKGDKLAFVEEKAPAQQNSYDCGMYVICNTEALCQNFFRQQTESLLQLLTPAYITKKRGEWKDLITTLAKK

[5] = molecular target: T3, Sentrin-specific protease 8; type: functional; remark: listed apart in the source
P388/ADR = assay: cells; type: functional; conditions: Mus musculus
SN12K1 = assay: cells; type: functional; conditions: Homo sapiens
[6] = intracellular Trypanosoma cruzi inhibitors in host cells – cell-based, plate reader, cherry-pick samples, set 3, dose response (AID 651818); type: functional;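 note: compounds incubated with infected cells for about four days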
[7] = Luminescence Cell-Based Dose Retest to Confirm Inhibitors of Cancer Stem Cells. [Related pubchem assays (depositor defined):AID2717, AID2721]; type: functional; conditions: Homo sapiens
[8] = molecular target: T4, Replicative DNA helicase DnaB (Mycobacterium tuberculosis, UniProt P9WMR3); assay: DnaB intein splicing inhibitors, dose response, biochemical, cell-free fluorescence (AID 449749); type: functional
T4 sequence (P9WMR3 whole entry): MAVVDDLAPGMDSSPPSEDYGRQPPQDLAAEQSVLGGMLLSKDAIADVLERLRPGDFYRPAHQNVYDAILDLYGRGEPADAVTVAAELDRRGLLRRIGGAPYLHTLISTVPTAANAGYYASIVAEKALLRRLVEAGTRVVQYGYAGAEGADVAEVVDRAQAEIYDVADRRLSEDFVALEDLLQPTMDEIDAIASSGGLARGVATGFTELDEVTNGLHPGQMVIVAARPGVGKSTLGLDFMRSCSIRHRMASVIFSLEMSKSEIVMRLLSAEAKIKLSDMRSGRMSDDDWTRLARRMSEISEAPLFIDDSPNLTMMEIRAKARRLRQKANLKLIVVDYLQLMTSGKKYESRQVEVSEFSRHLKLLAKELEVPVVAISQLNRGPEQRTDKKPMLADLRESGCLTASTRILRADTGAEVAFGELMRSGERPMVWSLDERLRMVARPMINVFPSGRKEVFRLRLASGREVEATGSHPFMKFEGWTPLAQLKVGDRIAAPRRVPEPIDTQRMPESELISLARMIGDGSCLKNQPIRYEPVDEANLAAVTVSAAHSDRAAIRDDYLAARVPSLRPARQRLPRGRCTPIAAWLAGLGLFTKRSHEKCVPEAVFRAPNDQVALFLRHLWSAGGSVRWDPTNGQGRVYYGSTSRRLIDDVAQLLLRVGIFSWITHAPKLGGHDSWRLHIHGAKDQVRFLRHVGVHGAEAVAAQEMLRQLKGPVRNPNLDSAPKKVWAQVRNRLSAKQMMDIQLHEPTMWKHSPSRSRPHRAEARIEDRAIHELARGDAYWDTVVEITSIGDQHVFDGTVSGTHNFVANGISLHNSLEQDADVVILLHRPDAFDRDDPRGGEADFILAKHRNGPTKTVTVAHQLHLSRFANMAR

Protein RecA = molecular target: T5, Protein RecA (Mycobacterium tuberculosis, UniProt P9WHJ3); assay: Fluorescence Cell-Free Homogeneous Dose Retest to Identify Inhibitors of RecA-Intein Splicing Activity. [Related pubchem assays (depositor defined):AID2097, AID2223, AID489010, AID492950]; type: functional
T5 sequence (P9WHJ3 whole entry): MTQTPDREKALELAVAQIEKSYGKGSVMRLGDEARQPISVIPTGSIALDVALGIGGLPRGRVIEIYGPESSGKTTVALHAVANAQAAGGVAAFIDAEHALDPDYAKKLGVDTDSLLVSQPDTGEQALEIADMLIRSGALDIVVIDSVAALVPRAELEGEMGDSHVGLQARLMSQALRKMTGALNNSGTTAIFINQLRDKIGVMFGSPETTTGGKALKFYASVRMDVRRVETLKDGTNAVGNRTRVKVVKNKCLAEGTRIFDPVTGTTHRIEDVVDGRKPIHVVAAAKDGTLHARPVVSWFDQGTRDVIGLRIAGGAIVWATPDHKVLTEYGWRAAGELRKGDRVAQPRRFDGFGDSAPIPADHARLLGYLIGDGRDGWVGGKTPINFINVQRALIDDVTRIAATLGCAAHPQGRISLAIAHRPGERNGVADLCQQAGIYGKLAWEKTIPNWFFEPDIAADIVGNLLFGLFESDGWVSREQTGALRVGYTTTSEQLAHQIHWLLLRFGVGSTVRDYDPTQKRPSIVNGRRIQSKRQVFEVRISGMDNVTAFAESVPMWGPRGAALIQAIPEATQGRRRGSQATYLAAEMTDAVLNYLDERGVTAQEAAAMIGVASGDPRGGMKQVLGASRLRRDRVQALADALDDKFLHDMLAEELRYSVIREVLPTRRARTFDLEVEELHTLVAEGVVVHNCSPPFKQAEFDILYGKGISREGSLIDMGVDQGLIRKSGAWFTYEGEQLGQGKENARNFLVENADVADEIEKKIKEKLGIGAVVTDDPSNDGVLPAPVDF

Cytochrome P450 2C19 = Cytochrome P450 2C19 (Homo sapiens, UniProt P33261); assay: Cytochrome panel assay with activity outcomes. Panel member name: p450-cyp2c19 Compounds with AC50 equal or less than 10 uM are considered active; type: functional; conditions: read-out: AC50
Cytochrome P450 1A2 = molecular target: T6, Cytochrome P450 1A2 (Homo sapiens, UniProt P05177);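 note: PubChem cytochrome P450 panel assay, CYP1A2 panel member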
T6 sequence (P05177 whole entry): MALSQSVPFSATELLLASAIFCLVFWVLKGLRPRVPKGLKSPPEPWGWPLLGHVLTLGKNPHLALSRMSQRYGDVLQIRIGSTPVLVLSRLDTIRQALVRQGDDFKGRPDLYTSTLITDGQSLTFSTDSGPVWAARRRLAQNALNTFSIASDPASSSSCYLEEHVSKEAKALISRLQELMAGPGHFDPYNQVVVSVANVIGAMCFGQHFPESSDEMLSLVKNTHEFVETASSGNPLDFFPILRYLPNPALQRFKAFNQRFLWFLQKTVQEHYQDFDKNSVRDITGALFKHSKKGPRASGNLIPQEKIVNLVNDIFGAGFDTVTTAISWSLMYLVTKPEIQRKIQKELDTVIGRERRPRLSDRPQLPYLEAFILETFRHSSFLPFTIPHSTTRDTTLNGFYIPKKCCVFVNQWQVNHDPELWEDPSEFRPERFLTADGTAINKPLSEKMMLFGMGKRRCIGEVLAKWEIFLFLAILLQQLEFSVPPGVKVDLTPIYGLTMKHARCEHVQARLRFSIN

Cytochrome P450 2C9 = Cytochrome P450 2C9 (Homo sapiens, UniProt P11712)
Cytochrome P450 3A4 = Cytochrome P450 3A4 (Homo sapiens, UniProt P08684);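 note: CYP3A4 tested as one member of a cytochrome P450 panel screen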
Chain of Cytochrome P450 3A4 (P08684 whole entry): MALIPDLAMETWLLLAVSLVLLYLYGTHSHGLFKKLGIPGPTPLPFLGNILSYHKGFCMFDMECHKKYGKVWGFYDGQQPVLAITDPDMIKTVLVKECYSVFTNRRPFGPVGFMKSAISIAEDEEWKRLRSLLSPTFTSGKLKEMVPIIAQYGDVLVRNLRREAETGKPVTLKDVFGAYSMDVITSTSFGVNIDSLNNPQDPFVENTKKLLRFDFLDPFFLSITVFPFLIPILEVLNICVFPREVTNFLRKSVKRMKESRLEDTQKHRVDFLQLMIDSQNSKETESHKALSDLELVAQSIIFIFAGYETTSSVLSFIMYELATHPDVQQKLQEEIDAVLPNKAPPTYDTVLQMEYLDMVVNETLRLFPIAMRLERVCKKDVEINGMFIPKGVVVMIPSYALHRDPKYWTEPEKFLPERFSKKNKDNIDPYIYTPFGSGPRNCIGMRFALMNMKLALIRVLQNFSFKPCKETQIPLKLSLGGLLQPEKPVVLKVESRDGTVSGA

Chain of Beta-galactosidase (Q8VNN2 whole entry): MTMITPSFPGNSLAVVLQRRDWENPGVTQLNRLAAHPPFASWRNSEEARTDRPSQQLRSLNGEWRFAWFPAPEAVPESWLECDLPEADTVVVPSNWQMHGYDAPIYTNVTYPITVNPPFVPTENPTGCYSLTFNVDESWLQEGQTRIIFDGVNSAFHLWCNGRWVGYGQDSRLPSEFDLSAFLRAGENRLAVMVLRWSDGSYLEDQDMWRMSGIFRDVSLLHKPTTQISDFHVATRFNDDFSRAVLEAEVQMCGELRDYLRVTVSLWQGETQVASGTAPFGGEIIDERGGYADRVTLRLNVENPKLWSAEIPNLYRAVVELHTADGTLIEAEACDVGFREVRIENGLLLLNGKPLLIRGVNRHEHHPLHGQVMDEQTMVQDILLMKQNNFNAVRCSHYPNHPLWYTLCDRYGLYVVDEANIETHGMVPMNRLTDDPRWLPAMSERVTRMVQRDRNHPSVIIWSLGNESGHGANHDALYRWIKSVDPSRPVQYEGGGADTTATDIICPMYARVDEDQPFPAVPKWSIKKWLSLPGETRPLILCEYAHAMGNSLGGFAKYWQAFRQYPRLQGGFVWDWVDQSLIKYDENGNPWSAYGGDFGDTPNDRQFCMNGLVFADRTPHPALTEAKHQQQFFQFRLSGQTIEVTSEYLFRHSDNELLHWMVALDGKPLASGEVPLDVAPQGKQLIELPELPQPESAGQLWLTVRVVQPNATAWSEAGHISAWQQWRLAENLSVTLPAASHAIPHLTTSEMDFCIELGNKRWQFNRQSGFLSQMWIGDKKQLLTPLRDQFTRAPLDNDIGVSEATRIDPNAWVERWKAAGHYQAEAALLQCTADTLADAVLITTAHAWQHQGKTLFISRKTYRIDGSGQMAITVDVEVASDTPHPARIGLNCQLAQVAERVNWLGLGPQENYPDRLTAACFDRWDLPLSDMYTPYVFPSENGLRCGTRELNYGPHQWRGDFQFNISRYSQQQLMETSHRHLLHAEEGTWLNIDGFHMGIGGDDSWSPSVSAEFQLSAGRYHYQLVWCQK
Chain of Cytochrome P450 2C19 (P33261 whole entry): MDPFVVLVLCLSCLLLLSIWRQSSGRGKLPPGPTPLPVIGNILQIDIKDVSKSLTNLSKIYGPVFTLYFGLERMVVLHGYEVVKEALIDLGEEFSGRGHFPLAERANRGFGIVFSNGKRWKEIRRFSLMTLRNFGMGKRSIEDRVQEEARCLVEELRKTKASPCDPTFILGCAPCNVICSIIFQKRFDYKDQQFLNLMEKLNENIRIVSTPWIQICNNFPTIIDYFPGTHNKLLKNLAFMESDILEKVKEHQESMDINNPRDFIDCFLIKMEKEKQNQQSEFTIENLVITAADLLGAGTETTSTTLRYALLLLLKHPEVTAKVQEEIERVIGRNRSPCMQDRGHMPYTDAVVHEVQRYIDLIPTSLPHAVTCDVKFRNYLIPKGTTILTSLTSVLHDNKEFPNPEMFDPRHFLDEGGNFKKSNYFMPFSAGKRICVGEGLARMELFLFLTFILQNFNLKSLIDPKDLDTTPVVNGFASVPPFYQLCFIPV
Chain of Cytochrome P450 2C9 (P11712 whole entry): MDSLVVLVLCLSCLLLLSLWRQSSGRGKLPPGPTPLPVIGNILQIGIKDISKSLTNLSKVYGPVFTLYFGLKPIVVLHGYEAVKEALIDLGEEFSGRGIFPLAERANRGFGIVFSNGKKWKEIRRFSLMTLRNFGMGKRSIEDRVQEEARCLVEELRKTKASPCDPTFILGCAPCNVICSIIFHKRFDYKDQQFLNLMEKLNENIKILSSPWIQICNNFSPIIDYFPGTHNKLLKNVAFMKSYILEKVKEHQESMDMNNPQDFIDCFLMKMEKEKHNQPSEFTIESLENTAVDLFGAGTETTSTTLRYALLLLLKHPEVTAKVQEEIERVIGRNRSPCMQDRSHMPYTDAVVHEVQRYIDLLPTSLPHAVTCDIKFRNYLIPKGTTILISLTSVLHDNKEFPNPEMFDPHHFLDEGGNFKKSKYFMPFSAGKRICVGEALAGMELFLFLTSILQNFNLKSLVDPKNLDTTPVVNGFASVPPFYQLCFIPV
Chain of Genome polyprotein (P29990 2492-3391 limits assumed): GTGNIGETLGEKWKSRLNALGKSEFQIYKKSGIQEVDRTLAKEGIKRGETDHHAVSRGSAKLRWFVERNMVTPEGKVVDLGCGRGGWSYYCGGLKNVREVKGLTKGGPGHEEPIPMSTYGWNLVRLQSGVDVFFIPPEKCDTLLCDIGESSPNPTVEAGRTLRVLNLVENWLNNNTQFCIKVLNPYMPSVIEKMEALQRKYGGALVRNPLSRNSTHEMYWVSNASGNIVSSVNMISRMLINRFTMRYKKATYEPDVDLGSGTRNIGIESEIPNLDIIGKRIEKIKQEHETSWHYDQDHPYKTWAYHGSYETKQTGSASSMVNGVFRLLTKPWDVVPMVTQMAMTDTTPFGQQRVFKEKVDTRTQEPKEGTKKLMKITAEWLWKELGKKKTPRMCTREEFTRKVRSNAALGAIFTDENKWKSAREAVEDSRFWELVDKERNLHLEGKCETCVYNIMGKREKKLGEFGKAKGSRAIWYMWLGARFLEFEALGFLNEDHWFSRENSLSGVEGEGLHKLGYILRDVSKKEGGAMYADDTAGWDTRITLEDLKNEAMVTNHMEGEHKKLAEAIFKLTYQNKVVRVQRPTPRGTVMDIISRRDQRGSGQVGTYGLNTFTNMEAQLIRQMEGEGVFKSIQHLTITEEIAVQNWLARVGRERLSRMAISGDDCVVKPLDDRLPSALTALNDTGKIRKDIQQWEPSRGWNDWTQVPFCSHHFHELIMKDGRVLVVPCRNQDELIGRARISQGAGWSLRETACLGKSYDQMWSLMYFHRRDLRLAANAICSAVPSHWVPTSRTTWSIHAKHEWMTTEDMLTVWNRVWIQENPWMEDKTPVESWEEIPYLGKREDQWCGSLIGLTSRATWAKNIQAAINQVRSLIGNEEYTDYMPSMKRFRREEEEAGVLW

## O=C(CCCN1CCc2[nH]c3ccc(F)cc3c2C1)c1ccc(F)cc1
[1]
  IC50: 7.9 µM (active)

## N#CC(C#N)=CC1=C2OC(c3ccccc3)=CC(c3ccccc3)=C2CCC1
Beta-galactosidase
  EC50: > 40 µM (inactive)
[2]
  IC50: > 40 µM (not active)

## CSCCC(NC(=O)COc1ccccc1)C(=O)OCC(=O)c1cc2ccccc2o1 (configuration not stated)
Beta-galactosidase
  EC50: > 40 µM (inactive)
[2]
  IC50: 31.2 µM (not active)

## COc1ccccc1NCC(=O)c1ccc(Cl)cc1
Beta-galactosidase
  EC50: > 40 µM (inactive)
[2]
  IC50: 35.3 µM (not active)

## O=C1NC(=O)/C(=C/c2ccc(-c3cc(C(=O)O)ccc3Cl)o2)S1
Genome polyprotein
  IC50: 49.4 µM (active)
[3]
  AC50: 2.56 µM (active)

## O=C(NCC(c1ccco1)N1CCCC1)c1cccc(S(=O)(=O)Nc2ccc(Br)cc2)c1 (configuration not stated)
[1]
  IC50: 45.8 µM (active)

## N#CC1(CCCN2CCCCC2)c2ccccc2CCc2ccccc21
[4]
  IC50: 35.4 µM (active)
[5]
  IC50: 43.4 µM (active)

## NC(=O)C#CC(N)=O
P388/ADR
  GI50: 1.02 µM (active)
SN12K1
  GI50: 12.9 µM (inactive)

## COc1ccc(NC(=O)Nc2ccc3c(c2)C(=O)N([C@H](C)CO)C[C@H](C)[C@@H](CN(C)Cc2ccc(Cl)c(Cl)c2)OCCCC[C@@H](C)O3)cc1
[6]
  AC50: 4.1 µM (active)

## C[C@@H]1CCCCO[C@@H](CN(C)C(=O)Nc2ccc(C(F)(F)F)cc2)[C@@H](C)CN([C@H](C)CO)C(=O)c2cc(NC(=O)Nc3ccccc3)ccc2O1
[6]
  AC50: 3.75 µM (active)

## Cc1noc(C)c1S(=O)(=O)Nc1ccc2c(c1)CC(=O)N([C@H](C)CO)C[C@H](C)[C@H](CN(C)Cc1ccc(C(=O)Nc3ccccc3N)cc1)O2
[6]
  AC50: 2.36 µM (active)

## C[C@@H]1CN([C@H](C)CO)C(=O)Cc2cc(NC(=O)Nc3cccc4ccccc34)ccc2O[C@@H]1CN(C)Cc1ccc2c(c1)OCO2
[6]
  AC50: 2.61 µM (active)

## COc1ccc(-c2cc(=O)n(-c3ccc([N+](=O)[O-])cc3)[nH]2)cc1
[7]
  AC50: 10 µM (active)
[8]
  AC50: 2.75 µM (active)
Protein RecA
  EC50: 2.42 µM (active)
[4]
  IC50: 17.6 µM (active)
[5]
  IC50: 25.2 µM (active)

## O=C1C2C3C=CC(CC3)C2C(=O)N1/N=C/c1ccccc1O (configuration not stated)
Cytochrome P450 2C19
  AC50: 15.8 µM (inconclusive)
Cytochrome P450 1A2
  AC50: 1.78 µM (inconclusive)
Cytochrome P450 2C9
  AC50: 14.1 µM (inconclusive)
Cytochrome P450 3A4
  AC50: inconclusive
